Laboratory results from publication PMC8789064, “High-Throughput-Methyl-Reading (HTMR) assay: a solution based on nucleotide methyl-binding proteins enables large-scale screening for DNA/RNA methyltransferases and demethylases” (Nucleic Acids Research, 2021).
Like-named read-outs stand apart in the source and are kept apart here. Blank lines part the entries; values can stand above or below the molecule they belong to.

Columns and labels:
tri-MBD1 = target: T1, tri-MBD1 (Homo sapiens, UniProt Q9UIS9); experiment: Counter screen: binding of methyl-binding protein tri-MBD1 without enzyme
T1 construct: Genes encoding tri-MBD1 (tandem three MBD1 1–105 ORF); made in house; host or cells: E. coli BL21(DE3) codon plus RIPL
T1 sequence (Q9UIS9 with tags, fused parts or gaps): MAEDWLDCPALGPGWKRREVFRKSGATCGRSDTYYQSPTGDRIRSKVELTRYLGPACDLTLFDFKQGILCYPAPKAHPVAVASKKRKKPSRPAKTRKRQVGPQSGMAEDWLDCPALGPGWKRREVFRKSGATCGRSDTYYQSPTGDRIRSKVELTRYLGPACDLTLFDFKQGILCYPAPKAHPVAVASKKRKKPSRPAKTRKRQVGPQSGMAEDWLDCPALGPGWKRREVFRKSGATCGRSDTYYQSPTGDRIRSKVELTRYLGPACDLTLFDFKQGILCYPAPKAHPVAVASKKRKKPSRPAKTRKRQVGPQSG
Source text: (§1) False-positive compounds should be abandoned during the high-throughput screening. […] This entails replacing half of the substrate oligonucleotide with product oligonucleotide in the absence of the enzyme and adding the methyl-binding protein into the wells. The FP signal can then be measured according to the above steps.
(§2) Finally, we performed high-throughput screening against DNMT1 and ALKBH5 for an in-house library of 2000 compounds. […] Half of the substrate oligonucleotide was replaced with the product (chemical synthetic) in the assay (the enzyme was removed), in which case the false-positive compounds would still influence the FP signal value while the true hits would not. […] We performed a cofactor-competitive assay to evaluate the biological activity and mechanism of action of hit compounds.

DNMT1 = target: T2, DNMT1 (Homo sapiens, UniProt P26358); experiment: DNMT1 FP binding assay (DNA binding of the enzyme)
T2 construct: The human DNMT1 (351–1600) gene with N terminal 6xHis tag and a TEV cleavage site; 6xHis (N); TEV cleavage site (N); made in house; host or cells: Spodoptera frugiperda Sf9 (baculovirus)
Method: (§3) The FP binding assay of DNMT1 and METTL3/14 was performed in a buffer containing 20 mM HEPES, pH 7.4, and 1 mM DTT. The FP binding assay of TET2 and ALKBH5 was performed in the reaction buffer that removes the NaCl. At high concentrations of NaCl (over 100 mM), weak FP signals were detected for the enzymes.

DNMT1(351–1600) = target: T3, DNMT1(351–1600) (Homo sapiens, UniProt P26358); experiment: HTMR (FP-based) DNMT1 methylation assay; format: biochemical
T3 construct: The human DNMT1 (351–1600) gene with N terminal 6xHis tag and a TEV cleavage site; 6xHis (N); TEV cleavage site (N); made in house; host or cells: Spodoptera frugiperda Sf9 (baculovirus)
Method: To start the assay, the binding curve of the substrate oligonucleotide and the product oligonucleotide (chemical synthetic) were titrated to determine the proper concentration of methyl-binding proteins. […] The assays could be performed in 10 μl + 10 μl, 20 μl + 20 μl (as in this study), or other formats in a black 384-well plate (Corning #3575). The former is the reaction volume containing enzyme, oligonucleotide, and cofactors, while the latter is the volume of methyl-binding protein. The reaction was initiated by the addition of the enzymes or the substrates and terminated by the addition of methyl-binding proteins. The FP signals were then measured in fluorescence polarization standard mode by EnVision Multilabel Reader (PerkinElmer) after 10–15 min of incubation. […] All data were analyzed in GraphPad Prism 7.0.
The reaction components (enzyme, oligonucleotide and cofactors) were diluted in a reaction buffer containing 20 mM HEPES, pH 7.4, 1 mM EDTA and 1 mM DTT. […] This was followed by incubation for 10–15 min at RT (room temperature), after which the plate was read by EnVision (PerkinElmer).

METTL3/14 = target: T4, METTL3/14 (Homo sapiens, UniProt Q86U44); experiment: HTMR (FP-based) METTL3/METTL14 methylation assay; format: biochemical; details: from IC50 vs SAM concentration line, Cheng-Prusoff
T4 construct: The full-length METTL3 and METTL14 plasmids were obtained from Professor Ping Yin; made in house; host or cells: E. coli BL21(DE3) codon plus RIPL
Method: (§4) To start the assay, the binding curve of the substrate oligonucleotide and the product oligonucleotide (chemical synthetic) were titrated to determine the proper concentration of methyl-binding proteins. The final NaCl conditions of DNMT1, TET2, METTL3/14 and ALKBH5 were 400, 300, 250 and 250 mM, respectively. The assays could be performed in 10 μl + 10 μl, 20 μl + 20 μl (as in this study), or other formats in a black 384-well plate (Corning #3575). The former is the reaction volume containing enzyme, oligonucleotide, and cofactors, while the latter is the volume of methyl-binding protein. The reaction was initiated by the addition of the enzymes or the substrates and terminated by the addition of methyl-binding proteins. The FP signals were then measured in fluorescence polarization standard mode by EnVision Multilabel Reader (PerkinElmer) after 10–15 min of incubation. The plate can be repeatedly measured. […] All data were analyzed in GraphPad Prism 7.0.
The enzymes, oligonucleotides, and cofactors were diluted in a reaction buffer containing 20 mM HEPES, pH 7.4, 1 mM DTT and 0.4 U/μl RNase inhibitor (BBI Life sciences). […] After 10–15 min of incubation, the plate was read by Envision (PerkinElmer).
(§5) All the curves were plotted in the Graphpad prism 7.0. And the IC50 values were determined by the log(inhibitor) versus response—variable slope (four parameters) model in Graphpad prism 7.0. […]

ALKBH5 [1] = target: T5, ALKBH5 (Homo sapiens, UniProt Q6P6C2); experiment: HTMR (FP-based) ALKBH5 demethylation assay; format: biochemical; details: different concentrations of 2-OG
T5 construct: The untagged MBD1 (1–105) and ALKBH5 (66–292) catalytic domain genes were subcloned; made in house; host or cells: E. coli BL21(DE3) codon plus RIPL
Method: as §4, with “The reaction was initiated by the addition of the enzymes or the substrates and terminated by the addition of methyl-binding proteins.” left out
The reaction buffer containing 20 mM HEPES, pH 7.4, 250 mM NaCl, 200 μM 2-OG, 300 μM ascorbic acid, and 50 μM […]. […] The plate can then be read immediately or after 10–15 min of incubation due to an equal concentration of NaCl. After this, the plate can be read by EnVision (PerkinElmer).
as §5

YTHDF1 = target: T6, YTHDF1 (Homo sapiens, UniProt Q9BYJ9); experiment: Counter screen: binding of methyl-binding protein YTHDF1 without enzyme; details: ALKBH5 assay format, enzyme removed
T6 construct: YTHDF1 (361–559), YTHDF2 (380–579) and YTHDC1 (355–492) were chemically synthesized; made in house; host or cells: E. coli BL21(DE3) codon plus RIPL
T6 sequence (Q9BYJ9 361-559): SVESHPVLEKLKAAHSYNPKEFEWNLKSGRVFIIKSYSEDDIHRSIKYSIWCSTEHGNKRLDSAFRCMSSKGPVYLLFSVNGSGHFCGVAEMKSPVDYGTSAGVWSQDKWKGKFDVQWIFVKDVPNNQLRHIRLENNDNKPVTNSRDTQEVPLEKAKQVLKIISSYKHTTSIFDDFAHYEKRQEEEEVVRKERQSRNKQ
Source text: as §1, §2

ALKBH5 [2] = target: T5, ALKBH5; experiment: ALKBH5 FP binding assay (RNA binding of the enzyme)
Method: as §3

TET2 = target: T7, TET2 (Homo sapiens, UniProt Q6N021); experiment: HTMR (FP-based) TET2 demethylation assay; format: biochemical
T7 construct: made in house; host or cells: E. coli BL21(DE3) codon plus RIPL
Method: To start the assay, the binding curve of the substrate oligonucleotide and the product oligonucleotide (chemical synthetic) were titrated to determine the proper concentration of methyl-binding proteins. […] The reaction was initiated by the addition of the enzymes or the substrates and terminated by the addition of methyl-binding proteins. The FP signals were then measured in fluorescence polarization standard mode by EnVision Multilabel Reader (PerkinElmer) after 10–15 min of incubation. […] Additionally, this experiment must avoid strong light exposure.
The reaction buffer containing 20 mM HEPES, pH 8.0, 100 mM NaCl, 1 mM DTT, 1 mM ATP, 1 mM 2-OG, 2 mM ascorbic acid and 100 μM Fe2(NH4)2(SO4)2. Fe^2+ is the last to be added. The reaction contained 40 nM TET2 and 20 nM FAM-labeled fully-methylated DNA occurred at 37°C for 60 min. Next, 20 μl tri-MBD1 (500 nM as final concentration) protein was diluted in 20 mM HEPES, pH 7.4, 500 mM NaCl and transferred into wells to end the reaction. After 10–15 min of incubation, the plate was read by Envision (PerkinElmer).

ALKBH5(66–292) [3] = target: T8, ALKBH5(66–292) (Homo sapiens, UniProt Q6P6C2); experiment: NMR CPMG and STD experiments; format: binding; details: 200 μM compound, 5 μM ALKBH5
T8 construct: The untagged MBD1 (1–105) and ALKBH5 (66–292) catalytic domain genes were subcloned; made in house; host or cells: E. coli BL21(DE3) codon plus RIPL
Method: Saturation transfer difference (STD) and Carr-Purcell-Meiboom-Gill (CPMG) experiments were performed to investigate the interaction between the compound and the protein, as previously described ([65]). All NMR spectra were acquired on a Bruker Avance III 600 MHz NMR spectrometer equipped with a cryoprobe (Bruker Biospin, Germany). The 5 μM ALKBH5(66–292) protein and 200 μM compound were dissolved into a phosphate buffer containing 20 mM NaH2PO4, 20 mM Na2HPO4, pH 7.4, 100 mM NaCl, 95% D2O, 5% DMSO-d6 and then used in NMR data acquisition. Transverse relaxation-edited spectra were recorded using the water-suppressed CPMG pulse sequence. Sixty-four transients were collected into 48 076 data points with a spectral width of 8.0 kHz and an acquisition time of 3.0 s. STD spectrum was recorded using the pulse sequence of stddiffgp19.3 with water suppression (3–9–19 WATERGATE). The on and off resonance excitation positions were defined at –0.17 and 33 ppm, respectively. The bandwidth for the saturation pulse was set to 42.4 Hz. One hundred and twenty-eight transients were collected into 32,768 data points with a spectral width of 9.6 kHz and an acquisition time of 1.71 s.

ALKBH5(66–292) [4] = target: T8, ALKBH5(66–292); experiment: Thermal shift assay; format: binding; details: 5 μM ALKBH5, 100 μM compound (molar ratio 1:20); read-out: Tm shift (ΔTm) of ALKBH5
Method: The thermal shift assay was performed with a QuantStudio 6 Flex real-time PCR machine (Applied Biosystems) with a buffer containing 20 mM HEPES, pH 7.4 and 100 mM NaCl. The final system was 20 μl, which contained 5 μM ALKBH5(66–292) protein, 1:1000 dilution of SYPRO Orange dye (purchased from Invitrogen, 5000× stock in DMSO), and DMSO or 100 μM compounds (final DMSO concentration was 0.1%). The samples were heated from 25 to 95°C (2.5°C/min). All samples were performed in triplicate and data were analyzed by Protein Thermal Shift Software version 1.3 (Applied Biosystems).

GST-YTHDF1 YTH domain = target: T9, GST-YTHDF1 YTH domain (UniProt Q9BYJ9 361-559); experiment: fluorescence polarization; 250 mM NaCl; over 100-fold selectivity for m6A over unmodified RNA; FP, 384-well; methyl readers at final NaCl 400 mM (DNMT1 assay), 300 mM (TET2), 250 mM (METTL3/14, ALKBH5), 10-15 min; DNMT1 and METTL3/14 binding in 20 mM HEPES pH 7.4, 1 mM DTT with varied NaCl; TET2 and ALKBH5 in reaction buffer without NaCl; temperature not stated; details: protein: recombinant; tags: N-terminal GST; label: 5'-FAM; single strand
T9 sequence: T6 sequence (Q9BYJ9 361-559)

[5] = target: T10, tri-MBD1 (GST-MBD1-MBD1-MBD1) (UniProt Q9UIS9 1-105); experiment: fluorescence polarization; 400 mM NaCl, 20 nM DNMT1 present; FP, 384-well; methyl readers at final NaCl 400 mM (DNMT1 assay), 300 mM (TET2), 250 mM (METTL3/14, ALKBH5), 10-15 min; DNMT1 and METTL3/14 binding in 20 mM HEPES pH 7.4, 1 mM DTT with varied NaCl; TET2 and ALKBH5 in reaction buffer without NaCl; temperature not stated; details: protein: recombinant; tags: N-terminal GST (pGEX-6P-1); label: 5'-FAM top strand; blunt
T10 chain: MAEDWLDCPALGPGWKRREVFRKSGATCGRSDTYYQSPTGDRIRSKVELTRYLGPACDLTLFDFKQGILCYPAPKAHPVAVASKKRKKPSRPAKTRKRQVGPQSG

T5 sequence (Q6P6C2 66-292): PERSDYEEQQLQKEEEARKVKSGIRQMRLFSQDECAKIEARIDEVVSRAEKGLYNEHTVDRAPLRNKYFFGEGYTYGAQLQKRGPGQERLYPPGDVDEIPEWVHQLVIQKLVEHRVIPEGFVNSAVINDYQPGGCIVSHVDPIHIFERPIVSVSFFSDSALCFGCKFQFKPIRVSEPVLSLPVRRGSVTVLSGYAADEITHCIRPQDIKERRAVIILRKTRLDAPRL
T8 sequence (Q6P6C2 66-292): as above
T2 sequence (P26358 351-1600): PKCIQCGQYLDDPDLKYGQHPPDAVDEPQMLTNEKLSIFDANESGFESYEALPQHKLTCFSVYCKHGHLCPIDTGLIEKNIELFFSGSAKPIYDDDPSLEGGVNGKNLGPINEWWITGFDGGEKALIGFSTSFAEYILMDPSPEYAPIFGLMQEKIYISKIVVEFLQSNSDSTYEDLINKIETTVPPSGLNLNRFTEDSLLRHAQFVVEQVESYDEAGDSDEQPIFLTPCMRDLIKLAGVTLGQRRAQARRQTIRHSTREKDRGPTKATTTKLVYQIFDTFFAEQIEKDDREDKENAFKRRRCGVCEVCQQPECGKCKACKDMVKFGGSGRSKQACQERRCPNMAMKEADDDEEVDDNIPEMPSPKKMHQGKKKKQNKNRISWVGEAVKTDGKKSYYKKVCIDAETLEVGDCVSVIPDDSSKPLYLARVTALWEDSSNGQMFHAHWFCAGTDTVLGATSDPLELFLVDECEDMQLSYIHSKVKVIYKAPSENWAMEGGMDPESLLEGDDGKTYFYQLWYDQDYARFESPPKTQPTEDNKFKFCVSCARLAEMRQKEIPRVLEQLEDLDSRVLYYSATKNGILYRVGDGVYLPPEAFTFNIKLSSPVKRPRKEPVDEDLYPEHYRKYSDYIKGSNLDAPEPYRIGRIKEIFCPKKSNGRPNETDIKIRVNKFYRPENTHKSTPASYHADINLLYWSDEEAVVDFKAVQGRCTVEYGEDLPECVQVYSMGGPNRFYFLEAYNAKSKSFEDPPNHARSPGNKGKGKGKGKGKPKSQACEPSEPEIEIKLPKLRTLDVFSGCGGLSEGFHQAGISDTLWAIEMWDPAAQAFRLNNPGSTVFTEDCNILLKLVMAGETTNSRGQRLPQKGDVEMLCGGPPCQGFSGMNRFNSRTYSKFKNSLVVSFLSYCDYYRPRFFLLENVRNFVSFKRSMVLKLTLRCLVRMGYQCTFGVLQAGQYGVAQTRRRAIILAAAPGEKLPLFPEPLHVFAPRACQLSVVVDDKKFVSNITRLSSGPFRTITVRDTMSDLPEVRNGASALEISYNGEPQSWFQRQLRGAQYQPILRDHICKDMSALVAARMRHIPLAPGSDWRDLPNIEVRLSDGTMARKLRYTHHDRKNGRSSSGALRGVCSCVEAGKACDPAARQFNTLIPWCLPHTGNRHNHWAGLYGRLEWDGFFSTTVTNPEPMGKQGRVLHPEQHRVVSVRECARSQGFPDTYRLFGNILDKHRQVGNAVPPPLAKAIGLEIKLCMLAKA
T3 sequence (P26358 351-1600): as above
T4 sequence (Q86U44 whole entry): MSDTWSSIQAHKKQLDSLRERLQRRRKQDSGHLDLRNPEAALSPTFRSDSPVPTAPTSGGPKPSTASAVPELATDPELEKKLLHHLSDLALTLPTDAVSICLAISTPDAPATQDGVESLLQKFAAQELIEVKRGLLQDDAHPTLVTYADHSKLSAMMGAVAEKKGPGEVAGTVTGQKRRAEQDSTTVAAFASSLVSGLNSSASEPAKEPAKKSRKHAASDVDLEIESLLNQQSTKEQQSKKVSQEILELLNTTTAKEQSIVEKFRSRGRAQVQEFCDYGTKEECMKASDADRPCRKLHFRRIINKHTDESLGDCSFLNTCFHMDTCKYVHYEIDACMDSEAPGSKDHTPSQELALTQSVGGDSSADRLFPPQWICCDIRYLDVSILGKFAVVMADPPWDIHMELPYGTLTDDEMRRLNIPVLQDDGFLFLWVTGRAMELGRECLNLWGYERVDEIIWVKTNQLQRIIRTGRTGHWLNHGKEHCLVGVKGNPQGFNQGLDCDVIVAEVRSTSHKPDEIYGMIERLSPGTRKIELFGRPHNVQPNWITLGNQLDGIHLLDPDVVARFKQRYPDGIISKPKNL

Molecule: O=c1c(O)c(-c2ccc(O)c(O)c2)oc2cc(O)cc(O)c12 [quercetin]
Change of IC50 in the ALKBH5 reaction with 2-OG concentration (ALKBH5 [1]): did not significantly change
Interference with the assay (counter screen) (YTHDF1): didn’t interference the assay
Effect on RNA binding of ALKBH5 (ALKBH5 [2]): did not affect the RNA binding of ALKBH5
Effect on RNA binding of ALKBH5 (ALKBH5 [2]; listed as Quercetin): didn’t affect the RNA binding
Activity during the TET2 demethylation reaction (TET2): high activity
Direct binding to ALKBH5 catalytic domain (CPMG, STD) (ALKBH5(66–292) [3]): strongly bound
ΔTm at 100 µM (ALKBH5(66–292) [4]): 2.57 °C

B1: m6A-modified RNA (ssRNA)
RNA: GAACCGGACUGUCUUA
modifications: m6A at position 8
binding result (GST-YTHDF1 YTH domain): binds

B2: fully-methylated DNA [M/M] (dsDNA)
DNA 1: TACGACCAGGAT
DNA 2: ATCCTGGTCGTA
modifications: 5mC at position 3 of top strand and position 9 of bottom strand
binding result [5]: binds

Results, then the molecule that gave them:

Interference with the assay (counter screen) (tri-MBD1; DNMT1 assay format, enzyme removed): didn’t interference the assay
Effect on DNA binding of DNMT1 (DNMT1): competed with the binding of DNA
Effect on DNA binding of DNMT1 (DNMT1; listed as Ellagic acid): disturbed the DNA-DNMT1
Mechanism with respect to cofactor SAM (DNMT1(351–1600); cofactor-competitive assay, increasing SAM): SAM-noncompetitive
IC50 (DNMT1(351–1600); different concentrations of SAM, read-out: IC50 against DNMT1): ~67 µM
Molecule: O=c1oc2c(O)c(O)cc3c(=O)oc4c(O)c(O)cc1c4c23 [ellagic acid]

Ki (METTL3/14): 2.06 ± 2.8 µM
Molecule: Nc1ncnc2c1ncn2[C@@H]1O[C@H](CSCC[C@H](N)C(=O)O)[C@@H](O)[C@H]1O [SAH]

Effect on binding of tri-MBD1 (tri-MBD1; high concentration (over 50 μM)): can inhibit the binding of tri-MBD1
Molecule: O=C(O)c1ccc(O)c2ncccc12 [IOX1, reference compound]
